Source: patent publication US11660351B2, “Antibody drug conjugates (ADCs) having enzymatically cleavable groups” (Bayer Pharma Aktiengesellschaft, priority 2016, dated 2023)

Experiments:
[1] = test system: NCI-H292; assay: Cytotoxic effect, MTT assay, NCI-H292 cells; format: cell-based; settings: Homo sapiens, Table 2, metabolites
[2] = test system: Caco-2 cells; assay: Caco-2 flux assay for cell permeability; format: in vitro ADME; settings: Caco-2, 2 h incubation
Protocol: The cell permeability of a substance can be investigated by means of in vitro testing in a flux assay using Caco-2 cells [M. D. Troutman and D. R. Thakker, Pharm. […] For this purpose, the cells were cultured for 15-16 days on 24-well filter plates. For the determination of permeation, the respective test substance was applied in a HEPES buffer to the cells either apically (A) or basally (B) and incubated for 2 hours. After 0 hours and after 2 hours, samples were taken from the cis and trans compartments. The samples were separated by HPLC (Agilent 1200, Böblingen, Germany) using reverse phase columns. The HPLC system was coupled via a Turbo Ion Spray Interface to a Triple Quadropole mass spectrometer API 4000 (AB SCIEX Deutschland GmbH, Darmstadt, Germany).

[3] = test system: SK-HEP-1; assay: Cytotoxic effect, MTT assay, SK-HEP-1 cells; format: cell-based; settings: Homo sapiens, SK-HEP1; Table 2, metabolites
[4] = molecular target: T1, legumain (Homo sapiens, UniProt Q99538); assay: Legumain assay (enzymatic cleavage); format: biochemical; settings: recombinant human legumain, rhLegumain 1 ng/μl, substrate 3 μM, pH 5.0, read-out: half-life of legumain-mediated cleavage to the target compound (converted)
T1 construct: purchased R&D Systems 2199-CY
T1 sequence (Q99538 18-323 limits assumed): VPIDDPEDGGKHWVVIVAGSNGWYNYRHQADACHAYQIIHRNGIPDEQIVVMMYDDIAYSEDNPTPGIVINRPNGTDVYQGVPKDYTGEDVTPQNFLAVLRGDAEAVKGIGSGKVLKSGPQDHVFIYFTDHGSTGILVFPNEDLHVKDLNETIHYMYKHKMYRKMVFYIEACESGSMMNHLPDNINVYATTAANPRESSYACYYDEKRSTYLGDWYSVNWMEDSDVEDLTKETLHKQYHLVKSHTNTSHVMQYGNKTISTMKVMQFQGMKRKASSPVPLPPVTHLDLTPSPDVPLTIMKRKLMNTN
Protocol: The legumain assay was conducted with recombinant human enzyme. The rhlegumain enzyme solution (catalogue #2199-CY, R&D Systems) was diluted in 50 mM Na acetate buffer/100 mM NaCl, pH 4.0 to the desired concentration and preincubated at 37° C. for 2 h. rhLegumain was then adjusted to a final concentration of 1 ng/μl in 50 mM MES buffer, 250 mM NaCl, pH 5.0. For every legumain-cleavable prodrug to be examined, a mixture was made up in a micro reaction vessel (0.5 ml, from Eppendorf). For this purpose, the substrate solution was adjusted to the desired concentration (double concentration) with 50 mM MES buffer, 250 mM NaCl, pH 5.0. For the kinetic measurement of the enzymatic reaction, 250 μl of the legumain solution were first initially charged and the enzyme reaction was started by adding 250 μl of the substrate solution (final concentration: single concentration; 3 μM). At various points in time, 50 μl samples were taken. Immediately, 100 μl of ice-cold methanol were added to this sample in order to stop the enzymatic reaction, and the sample was then frozen at −20° C. The times selected for sampling were after 0.5 h, 1 h, 3 h and 24 h. The samples were then analysed by means of RP-HPLC analysis and by LC-MS analysis. The determination of the toxophore released enabled the determination of the half-life t1/2 of the enzymatic reaction. […]

[5] = test system: MOLM-13; assay: Cytotoxic effect, MTT assay, MOLM-13 cells; format: cell-based; settings: Homo sapiens, Table 2, metabolites
Protocol: (§1) After 48 h, the medium was replaced. […] The suspension cells were counted and sown into a 96-well culture plate with white bottom (from Costar #3610) (#3610) (MOLM-13: 2000 cells/well; NB4: 7000 cells/well; MV-4-11: 5000 cells/well in a total volume of 100 μl). After 6 hours of incubation at 37° C. and 5% carbon dioxide, the medium was changed and the antibody-drug conjugates or metabolites were added by pipette in 10 μl of culture medium in concentrations of 10^−5M to 10^−13M to the cells (triplicates) in 90 μl. […] After 96 h, the cell proliferation was detected using the MTT assay (ATCC, Manassas, Va., USA, catalogue No. 30-1010K). To this end, the MTT reagent was incubated with the cells for 4 h, followed by lysis of the cells overnight by addition of the detergent. The dye formed was detected at 570 nm (Infinite M1000 pro, Tecan). The measured data were used to calculate the IC50 of the growth inhibition using the DRC (dose response curve). The proliferation of cells which were not treated with test substance but were otherwise identically treated was defined as the 100% figure.

[6] = test system: KPL-4; assay: Cytotoxic effect, MTT assay, KPL-4 cells; format: cell-based; settings: Homo sapiens, KPL4; Table 2, metabolites
Protocol: as §1, with “μl).” for “μl). After 6 hours of incubation at 37° C. and 5% carbon dioxide, the medium was changed and the antibody-drug conjugates or metabolites were added by pipette in 10 μl of culture medium in concentrations of 10^−5M to 10^−13M to the cells (triplicates) in 90 μl.”

## CC(C)(C)[C@H](c1cc(-c2cc(F)ccc2F)cn1Cc1ccccc1)N(CC[C@H](N)C(=O)NCCC(=O)N[C@H](CCC(=O)O)C(=O)O)C(=O)CO [Example M1, N-{(2S)-2-Amino-4-[{(1R)-1-[1-benzyl-4-(2,5-difluorophenyl)-1H-pyrrol-2-yl]-2,2-dimethylpropyl}(glycoloyl)amino]butanoyl}-beta-alanyl-D-glutamic acid]
[1]
  IC50: 174 nM
[2]
  Papp (B-A): 0.27 ×10⁻⁶ cm/s
[3]
  IC50: 19.6 nM

## CNC(=O)[C@H](CCN(C(=O)CO)[C@@H](c1cc(-c2cc(F)ccc2F)cn1Cc1ccccc1)C(C)(C)C)NC(=O)[C@H](CC(N)=O)NC(=O)[C@H](C)NC(=O)[C@H](C)NC(=O)Cc1ccncc1 [Model compound A, N-(Pyridin-4-ylacetyl)-L-alanyl-L-alanyl-N^1-[(2S)-4-[{(1R)-1-[1-benzyl-4-(2,5-difluorophenyl)-1H-pyrrol-2-yl]-2,2-dimethylpropyl}(glycoloyl)amino]-1-(methylamino)-1-oxobutan-2-yl]-L-aspartamide]
[4]
  half-life at 3 μM: 24 min

## CC(C)(C)[C@H](c1cc(-c2cc(F)ccc2F)cn1Cc1ccccc1)N(CCCN)C(=O)CO [Reference Example R3M, N-(3-Aminopropyl)-N-{(1R)-1-[1-benzyl-4-(2,5-difluorophenyl)-1H-pyrrol-2-yl]-2,2-dimethylpropyl}-2-hydroxyacetamide]
[5]
  IC50: 0.0669 nM
[1]
  IC50: 0.27 nM
[6]
  IC50: 0.257 nM
[3]
  IC50: 7.62 nM
